Measured values reported in patent US20070166781A1, “Method for assessing the virulence of pathogens and uses thereof” (priority 2002, published 2007).
Values after ≈ are worked out from the molar mass of the structure shown. Like-named read-outs stand apart in the source and are kept apart here.

Experiments:
Format in all cases: cell-based
[1] = test system: P. aeruginosa PAO1; test: Growth of D. discoideum DH1-10 on a lawn of P. aeruginosa PAO1 grown with azithromycin; settings: lawn of PAO1, 2 μg/ml azithromycin
Procedure: Quantitative measurements of D. discoideum growth on a lawn of pure P. aeruginosa were obtained by first plating 200 μl of P. aeruginosa culture on SM-agar. Droplets of 5 μl containing serial dilutions of D. discoideum cells (50.000 cells, 10.000 cells, 2.000, etc.) were then spotted on the bacterial lawn. The plates were incubated for 5 days at 25° C. and the highest dilution at which D. discoideum growth was visible was recorded.
However, in these experiments, Dictyostelium was grown in, the presence of both Klebsiella and Pseudomonas bacteria. […] To obtain more quantitative results, higher numbers of Dictyostelium cells were used to determine how many amoebae would be necessary to create a plaque in a lawn of P. aeruginosa. […] Consequently growth of Dictyostelium on the lasR mutant was scored as 1. On a lawn of the rhlR mutant PT462, amoebal growth could be observed in the first five dilutions of Dictyostelium (FIG. 2C; scored 5). […]
A lawn of P. aeruginosa PAO1 is grown in the presence of 2 μg/ml of azithromycin overnight. The bacterial lawn is then seeded with different dilutions of D. discoideum DH1-10 three days latter and the appearance of D. discoideum DH1-10 colonies is monitored. Growth of colonies of D. discoideum DH1-10 are recorded and scored between 1 and 2 (same scale as FIG. 2) as compared to a score of 0 in the absence of antibiotic.

[2] = test system: P. aeruginosa PAO1; test: MIC in Mueller-Hinton broth by the microdilution method; settings: Pseudomonas aeruginosa; strain PAO1
Procedure: (§1) Bacteria were grown overnight at 37° C. on Luria-Bertani (LB) agar. Single colonies were inoculated into 5 ml PB (2% (wt/vol) peptone, 0.3% (wt/vol) MgCl2.6H2O, 1% (wt/vol) K2SO4) (Essar et al., 1990, J. Bacteriol., 172(2), 884-900) in a 50 ml flask and grown at 37° C. for 8 hr prior to use. […] Under these conditions, similar OD600s were obtained for each strain and the induction of quorum sensing was maximal. Minimal Inhibitory Concentrations (MICs) were determined in Mueller-Hinton broth by the microdilution method (Thornsberry et al., 1983 NCCLS, 3, 48-56).

[3] = test system: P. aeruginosa PAO-BI (nfxC); test: as above; settings: Pseudomonas aeruginosa
Procedure: as §1

[4] = test system: P. aeruginosa PDO100; test: as above; settings: Pseudomonas aeruginosa
Procedure: as §1

[5] = test system: P. aeruginosa PT648 (nfxB); test: as above; settings: Pseudomonas aeruginosa
Procedure: as §1

[6] = test system: P. aeruginosa PT625 (nalB); test: as above; settings: Pseudomonas aeruginosa
Procedure: as §1

[7] = test system: P. aeruginosa PT149 (nfxC); test: as above; settings: Pseudomonas aeruginosa
Procedure: as §1

[8] = strain PAO-BI (nfxC), read-out: MIC
[9] = strain PT648 (nfxB), read-out: MIC
[10] = strain PT149 (nfxC), read-out: MIC

| Compound | Growth of colonies of D. discoideum DH1-10 in the presence versus absence of azithromycin [1] | MIC [2] [µg/mL] | MIC [3] [µg/mL] | MIC ([4]; PDO100) [µg/mL] | MIC [5] [µg/mL] | MIC [6] [µg/mL] | MIC [7] [µg/mL] | MIC [3, 8] [µg/mL] | MIC ([4]; strain PDO100, read-out: MIC) [µg/mL] | MIC [5, 9] [µg/mL] | MIC [7, 10] [µg/mL] |
| --- | --- | --- | --- | --- | --- | --- | --- | --- | --- | --- | --- |
| CC[C@H]1OC(=O)[C@H](C)[C@@H](O[C@H]2C[C@@](C)(OC)[C@@H](O)[C@H](C)O2)[C@H](C)[C@@H](O[C@@H]2O[C@H](C)C[C@H](N(C)C)[C@H]2O)[C@](C)(O)C[C@@H](C)CN(C)[C@H](C)[C@@H](O)[C@]1(C)O [azithromycin, Azithromycin] | significantly greater |  |  |  |  |  |  |  |  |  |  |
| O=C(N[C@H](CO)[C@H](O)c1ccc([N+](=O)[O-])cc1)C(Cl)Cl [Chloramphenicol] |  | 32 (≈ 99 µM) | 1060 (≈ 3290 µM) | 32 (≈ 99 µM) | 64 (≈ 198 µM) | 64 (≈ 198 µM) | 1060 (≈ 3290 µM) |  |  |  |  |
| CO/N=C(\C(=O)N[C@@H]1C(=O)N2C(C(=O)[O-])=C(C[n+]3cccc4c3CCC4)CS[C@H]12)c1csc(N)n1 [Cefpirome] |  | 2 (≈ 3.89 µM) |  |  |  | 4 (≈ 7.77 µM) |  | 0.5 (≈ 0.972 µM) | 2 (≈ 3.89 µM) | 8 (≈ 15.5 µM) | 0.5 (≈ 0.972 µM) |
| C[C@H]1[C@H](NC(=O)/C(=N\OC(C)(C)C(=O)O)c2csc(N)n2)C(=O)N1S(=O)(=O)O [Aztreonam] |  | 4 (≈ 9.19 µM) |  |  |  | 16 (≈ 36.7 µM) |  | 2 (≈ 4.59 µM) | 2 (≈ 4.59 µM) | 2 (≈ 4.59 µM) | 1 (≈ 2.3 µM) |
| C[C@@H](O)[C@H]1C(=O)N2C(C(=O)O)=C(SCCN=CN)C[C@H]12 [Imipenem] |  | 1 (≈ 3.34 µM) |  |  |  | 1 (≈ 3.34 µM) |  | 4 (≈ 13.4 µM) | 1 (≈ 3.34 µM) | 1 (≈ 3.34 µM) | 4 (≈ 13.4 µM) |
| O=C(O)c1cn(C2CC2)c2cc(N3CCNCC3)c(F)cc2c1=O [Ciprofloxacin] |  | 0.125 (≈ 0.377 µM) |  |  |  | 0.5 (≈ 1.51 µM) |  | 1 (≈ 3.02 µM) | 0.125 (≈ 0.377 µM) | 1 (≈ 3.02 µM) | 1 (≈ 3.02 µM) |
